Test results from patent US11407689B2, “Black urea enhanced efficiency controllable release fertilizer compositions” (priority 2018, dated 2022).

Legend:
rice = experiment: Greenhouse Rice Test (rice grown in 5-gallon buckets, chlorophyll by SPAD 501 meter and rough rice yield); format: in vivo; settings: for Average of Chlorophyll Measurements: relative chlorophyll in leaves, SPAD 501 meter
Experimental: This test was conducted to compare the use of Chip Urea and Black Chip Urea to the use of ordinary granular urea for growing rice. Chip Urea, Black Chip Urea, and plain urea fertilizers were tested at Applied Chemical Technology to fertilize rice grown in 5-gallon buckets in a greenhouse. The rice was fertilized following practices used to grow rice commercially in Arkansas. These practices include fertilizing with starter fertilizers and then dry seeding the rice. Nitrogen is then applied at flooding and again when the plants enter the reproductive phase. The fertilizer is flooded into the soil when the rice plants reach the 4-leaf stage by applying the granular fertilizer to the surface and then the applying the floodwater.
The rice for the tests was grown in a climate controlled greenhouse. […] Each fertilizer was tested with five replicates placed randomly on the table. The codes for labeling the tests are given in Example 5. The bucket placement for the tests is shown in Example 6.
Top soil was purchased from Shoals Dirt near Florence, Ala. This soil was mixed and sieved using a 3 MG screen. Soil samples were taken and sent for testing to the University of Arkansas. Each five gallon bucket was filled with 39 pounds of soil and placed on the greenhouse table with no space between the buckets.
Based on the soil test results, each bucket received pre-fertilizer that included urea, triple super phosphate (TSP), potassium chloride, Epsom salts (magnesium sulfate heptahydrate), and zinc sulfate.
The TSP fertilizer was applied first. This was done by weighing out 3.58 g of TSP for each bucket and then mixing the TSP thoroughly into the top 3-4 inches of soil.
Next, the remaining starter fertilizer was applied to each bucket by making a solution of the urea, potassium chloride, zinc sulfate, and Epson salts according to the values presented in Table A of Example 5. This solution was made so that the amount of the solution needed to supply the correct amount of each nutrient to each bucket was found in 200 mL of the solution. The 200 mL of solution was then evenly poured over the surface of the soil in each bucket.
The pre-fertilizer was applied. The rice was then planted by placing 10-15 seeds on the surface of the soil and using a pencil to push the rice seed ¾ inch beneath the soil surface. The hole was filled with sand. After planting, the soil moisture was monitored. If the buckets needed to be watered, then all of the buckets are watered with the same amount of water by volume. For all of the watering throughout the tests, rain water was used. […]
The fertilizers used were products made at ACT in the pilot plant tests. […] The amounts of each fertilizer were based on the nitrogen measured in the fertilizer by LECO so that every bucket received the same amount of nitrogen. […]

[1] = test system: arginine production in plants; settings: cited from earlier work

| Structure (SMILES) | Average of Chlorophyll Measurements (rice; July 19, 30 readings per bucket, five replicates) | Average of Chlorophyll Measurements (rice; September 21 (Friday before harvest)) | % Increase in Yield (rice; average yield per bucket versus plain urea) [%] | Average Rough Rice Yield per Bucket, Average Dry Weight at Harvest (rice; panicles dried at 50° C. for two days, same weight of N per bucket) [g] | Effectiveness in stimulating arginine production relative to urea [1] [times] |
| --- | --- | --- | --- | --- | --- |
| NC(N)=O [Urea, urea] | 46.8 | 36.4 | 0.0 | 64.42 | – |
| N#CN [acid cyanamide ion] | – | – | – | – | 20 |
